Measurements taken from publication PMC11366520, “Purification of angiotensin converting enzyme inhibitory peptides and antihypertensive effect generated from Indonesian traditional fermented beef (Cangkuk)” (Animal Bioscience, 2024).
pIC50: −log10 of the molar value. Where two headings read alike, the source gives them in different places. Residues, ends and D or L forms follow the SMILES beside them. No end group written: not given here.

Assays:
[1] = target: T1, Angiotensin converting enzyme (from rabbit lung) (Oryctolagus cuniculus, UniProt P12822); experiment: ACE-inhibitory activity, hippuric acid liberated from Hip-His-Leu (Cushman and Cheung, modified); type: biochemical; details: synthetic peptides, purity 80%, sodium borate buffer pH 8.3, Hip-His-Leu 7.6 mM, NaCl 608 mM, pre-incubation 5 min, incubation 30 min, 37°C, 228 nm
T1 construct: Angiotensin converting enzyme (from rabbit lung); purchased Sigma-Aldrich Co. (St. Louis, MO, USA); host or cells: rabbit lung (tissue-derived)
T1 sequence (P12822 34-1310): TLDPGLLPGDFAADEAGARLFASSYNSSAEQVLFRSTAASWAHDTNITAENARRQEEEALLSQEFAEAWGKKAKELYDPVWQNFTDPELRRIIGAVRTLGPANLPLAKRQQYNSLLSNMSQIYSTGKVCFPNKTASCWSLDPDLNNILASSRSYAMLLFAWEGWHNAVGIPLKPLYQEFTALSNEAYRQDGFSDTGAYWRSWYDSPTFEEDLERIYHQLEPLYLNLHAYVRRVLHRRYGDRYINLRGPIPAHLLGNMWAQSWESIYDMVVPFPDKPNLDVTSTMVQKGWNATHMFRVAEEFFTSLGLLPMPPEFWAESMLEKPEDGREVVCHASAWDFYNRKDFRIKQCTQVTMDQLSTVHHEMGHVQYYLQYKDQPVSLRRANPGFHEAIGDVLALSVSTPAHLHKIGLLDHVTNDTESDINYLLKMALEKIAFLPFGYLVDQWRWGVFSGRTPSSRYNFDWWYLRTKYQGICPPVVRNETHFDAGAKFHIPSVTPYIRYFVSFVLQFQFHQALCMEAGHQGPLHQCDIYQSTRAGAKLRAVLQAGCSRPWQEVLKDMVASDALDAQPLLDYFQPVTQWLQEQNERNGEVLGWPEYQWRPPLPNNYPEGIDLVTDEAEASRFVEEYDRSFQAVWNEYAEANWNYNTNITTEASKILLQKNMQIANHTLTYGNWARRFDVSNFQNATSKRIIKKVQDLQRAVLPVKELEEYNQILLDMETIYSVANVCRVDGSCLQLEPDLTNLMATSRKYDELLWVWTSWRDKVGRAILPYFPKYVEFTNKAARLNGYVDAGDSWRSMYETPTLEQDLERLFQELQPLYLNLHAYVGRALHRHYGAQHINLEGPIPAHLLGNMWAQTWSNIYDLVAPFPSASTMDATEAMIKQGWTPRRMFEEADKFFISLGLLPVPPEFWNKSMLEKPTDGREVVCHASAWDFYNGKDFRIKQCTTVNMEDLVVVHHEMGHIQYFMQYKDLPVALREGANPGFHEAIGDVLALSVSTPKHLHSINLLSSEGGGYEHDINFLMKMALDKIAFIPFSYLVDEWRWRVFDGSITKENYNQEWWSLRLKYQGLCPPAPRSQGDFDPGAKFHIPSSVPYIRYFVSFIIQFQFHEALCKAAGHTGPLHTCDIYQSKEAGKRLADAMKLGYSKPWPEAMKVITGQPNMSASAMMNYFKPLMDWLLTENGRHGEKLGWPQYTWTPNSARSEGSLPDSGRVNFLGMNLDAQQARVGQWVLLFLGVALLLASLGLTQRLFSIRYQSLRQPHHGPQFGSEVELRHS
Source text: The raw materials used in processing Cangkuk were fresh beef meat (brisket) from male Bali cattle, aged 2.5 to 3 years, purchased from the Animal Slaughtering House in Pekanbaru City. Green bamboo shoots were harvested from local farms. The additional ingredients were cooked rice, salt and distilled water. Angiotensin converting enzyme (from rabbit lung) and the substrate, hippuryl-L-histidyl-leucine, were purchased from Sigma-Aldrich Co. (St. Louis, MO, USA). All the chemicals and reagents used were of analytical grade.
ACE-inhibitory activity was analyzed according to the method of Cushman and Cheung with modifications by Arihara et al. This assay is based on liberation of hippuric acid from Hip-His-Leu catalyzed by ACE. A sample solution (15 μL) was mixed with 125 μL of a 100 mM sodium borate buffer (pH 8.3) containing 7.6 mM Hyp-Hys-Leu and 608 mM NaCl followed by pre-incubation for 5 min at 37°C. The reaction was initiated by adding 50 μL of ACE dissolved in distilled water, and the mixture was incubated for 30 min at 37°C. The reaction was stopped by adding 125 μL of 1 N HCl. […] Hippuric acid was dissolved with 1 mL of distilled water and its concentration spectrophotometrically determined at 228 nm. ACE inhibitory activity was calculated as: […]
where A, absorbance of the sample reaction; B, absorbance of the blank; and C, absorbance of the control (distilled water).

[2] = pepsin hydrolyzed peptides from porcine skeletal myosin B; ref [9]; cited from earlier work
Source text: Meat and meat products are excellent sources of ACE-inhibitory peptides. ACE-inhibitory peptides from animal proteins can be produced by several methods, including enzymatic hydrolysis and fermentation. […] The pepsin hydrolyzed peptide Lys-Arg-Val-Ile-Gln-Try and the Val-Lys-Ala-Gly-Ph sequence from por ...

ACE = details: cited from earlier work; for pIC50: read-out: IC50 value (ACE inhibition)
Protocol: According to a previous study, “Cangkuk” is made from fresh beef to which bamboo shoots, rice and salt are added. The treatment evaluated in the current research was addition of bamboo shoots with different preparation methods (chopped, ground, and extracted) and varied meat:bamboo shoot ratios (1:0.75, 1:1, and 1:1.25). Then, these preparations were fermented under anaerobic conditions at room temperature for seven days. It was reported that all treatments had ACE-inhibitory activities ranging from 43% to 80%. […] EAPLNPKANR, is a fragment of the 3rd to 12th amino acid sequence of LTEAPLNPKANREK [25]. […] The presence of hydrophobic amino acids such as isoleucine, valine, and glycine in the sequence has been associated with ACE-inhibitory activity.

SHRs = details: cited from earlier work
Source text: Meat and meat products are excellent sources of ACE-inhibitory peptides. ACE-inhibitory peptides from animal proteins can be produced by several methods, including enzymatic hydrolysis and fermentation. […] The higher the dose, the greater the decrease in SBPs. […] There is strong association between ACE inhibition and the antihypertensive effects of a bioactive peptide owing to its structure, size, chain length, type and order of amino acids ... || (+ 1 further places)

Compound: EAPLNPKANR [EAPLNPKANR]
- pIC50 [1]: 4.35

Compound: Val-Lys-Ala-Gly-Ph
- antihypertensive effects in vivo (in words) [2]: showed antihypertensive effects in vivo

Compound: Lys-Arg-Val-Ile-Gln-Try [pepsin hydrolyzed peptide from porcine skeletal myosin B]
- antihypertensive effects in vivo (in words) [2]: showed antihypertensive effects in vivo

Compound: LTEAPLNPKANREK
- pIC50 (ACE; peptide from goat meat hydrolysate (pepsin, trypsin, chymotrypsin), ref [25]): 3.92

Compound: IKEVTER
- ACE-inhibitory activity (in words) (ACE; peptide from venison treated with pepsin-trypsin-pancreatin, ref [28]): strong ACE-inhibitory activity

Compound: LIVGIIRCV [nonapeptide from beef myofibrillar protein hydrolysate]
- antihypertensive effect in SHRs (in words) (SHRs; alkaline-AK-pepsin hydrolyzed peptide from beef myofibrillar protein, ref [8]): had an antihypertensive effect in SHRs

Compound: CC[C@H](C)[C@H](N)C(=O)N[C@H](C(=O)NCC(=O)O)C(C)C [IVG] (H-Ile-Val-Gly-OH)
- pIC50 [1]: 4.01

Compound: IVGRPRHQG
- pIC50 (ACE; nonapeptide from Katsuobusi, ref [26]): 5.21

Compound: IVDR [tetrapeptide from Paralichthys olivaceus surimi]
- decrease of blood pressure in SHRs (in words) (SHRs; 6 h after administration, ref [31]): could decrease blood pressure in SHRs 6 h after its administration
- ACE inhibitory activity (in words) (ACE; tetrapeptide from Paralichthys olivaceus surimi, ref [31]): high ACE inhibitory activity

Compound: WGAP
- reduction of SBP (SHRs; 100 mg/kg BW oral, SHRs, 4 h after administration, ref [33]): up to 42.6 mmHg
